{
  "source": "patent US7442701B2",
  "about": "“Amino-heterocycles as VR-1 antagonists for treating pain” (Merck Sharp & Dohme Ltd., priority 2002, dated 2008)",
  "origin": "cited, not measured here",
  "target": "VR1 (Rattus norvegicus, UniProt O35433)",
  "sequence (O35433 whole entry)": "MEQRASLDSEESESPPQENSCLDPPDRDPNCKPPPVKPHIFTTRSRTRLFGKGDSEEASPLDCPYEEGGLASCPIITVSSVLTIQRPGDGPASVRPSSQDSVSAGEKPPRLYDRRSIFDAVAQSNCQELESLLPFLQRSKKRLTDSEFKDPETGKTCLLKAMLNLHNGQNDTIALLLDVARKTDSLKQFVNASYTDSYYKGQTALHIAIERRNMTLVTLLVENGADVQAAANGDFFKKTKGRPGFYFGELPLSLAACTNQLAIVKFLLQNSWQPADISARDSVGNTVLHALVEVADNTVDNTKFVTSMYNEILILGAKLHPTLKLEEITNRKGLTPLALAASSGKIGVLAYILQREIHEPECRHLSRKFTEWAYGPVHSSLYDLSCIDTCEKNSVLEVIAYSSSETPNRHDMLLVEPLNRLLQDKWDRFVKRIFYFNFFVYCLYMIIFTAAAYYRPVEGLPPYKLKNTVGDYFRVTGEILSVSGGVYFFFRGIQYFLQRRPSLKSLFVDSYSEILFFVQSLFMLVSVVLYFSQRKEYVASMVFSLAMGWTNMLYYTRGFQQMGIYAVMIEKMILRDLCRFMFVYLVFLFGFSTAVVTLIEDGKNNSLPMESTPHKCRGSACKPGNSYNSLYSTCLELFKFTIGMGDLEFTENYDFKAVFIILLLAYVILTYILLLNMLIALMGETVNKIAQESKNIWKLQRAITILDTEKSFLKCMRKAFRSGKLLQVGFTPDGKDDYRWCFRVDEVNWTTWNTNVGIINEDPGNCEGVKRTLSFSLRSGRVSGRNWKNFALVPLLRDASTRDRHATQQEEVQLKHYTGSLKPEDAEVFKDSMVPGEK",
  "conditions": "Wahl et al., Mol. Pharmacol., 59:9, 2001",
  "data": [
    {"smiles": "C=C(C)[C@]12C[C@@H](C)[C@@]34O[C@](Cc5ccccc5)(O[C@@H]1[C@@H]3C=C(COC(=O)Cc1cc(I)c(O)c(OC)c1)C[C@]1(O)C(=O)C(C)=C[C@@H]41)O2", "note": "[Iodo-resiniferatoxin]", "values": [
      {"measurement": "antagonist of VR1", "value": "nanomolar antagonist"}
    ]}
  ]
}
